What was measured:
[1] = test system: HEK-293 cells; assay: phospho-ERK in non-transfected HEK-293 control cells; format: cell-based, human; details: control HEK293, no GPRC6A
Experimental: (§1) Equal amounts of lysates were subjected to 10% SDS-PAGE, and phospho-ERK1/2 levels were determined by immunoblotting using antiphospho-ERK1/2 mitogen-activated protein kinase antibody (Cell Signaling Technology). […] An anti-peptide antibody was raised in a rabbit against a peptide ([…] (SEQ ID NO: 27)) corresponding to a sequence in the extracellular domain of mouse GPRC6A (in exon 1 of mouse GPRC6A gene) produced by Abgent (San Diego, Calif.). For phospho-ERK, the phospho-ERK1/2 levels were determined by immunoblotting using anti-phospho-ERK1/2 mitogen-activated protein kinase antibody (Cell Signaling Technology). Urinary β2-microglobulin was detected by rabbit polyclonal anti-β2-microglobulin antibody (Abcam Inc.). For aromatase expression analysis, the rabbit polyclonal anti-aromatase antibody (Abcam Inc.) and goat anti-rabbit IgG HRP secondary antibody (Santa Cruz Biotechnology Inc.) were used. Mouse anti-Actin antibody (Santa Cruz Biotechnology Inc.) was used for control protein loading.

[2] = biological target: T1, GPRC6A (Mus musculus, UniProt Q8K4Z6); assay: [3H]testosterone binding to membrane fractions of HEK-293 cells; design: expressed in transfected cells
T1 sequence (Q8K4Z6 21-928): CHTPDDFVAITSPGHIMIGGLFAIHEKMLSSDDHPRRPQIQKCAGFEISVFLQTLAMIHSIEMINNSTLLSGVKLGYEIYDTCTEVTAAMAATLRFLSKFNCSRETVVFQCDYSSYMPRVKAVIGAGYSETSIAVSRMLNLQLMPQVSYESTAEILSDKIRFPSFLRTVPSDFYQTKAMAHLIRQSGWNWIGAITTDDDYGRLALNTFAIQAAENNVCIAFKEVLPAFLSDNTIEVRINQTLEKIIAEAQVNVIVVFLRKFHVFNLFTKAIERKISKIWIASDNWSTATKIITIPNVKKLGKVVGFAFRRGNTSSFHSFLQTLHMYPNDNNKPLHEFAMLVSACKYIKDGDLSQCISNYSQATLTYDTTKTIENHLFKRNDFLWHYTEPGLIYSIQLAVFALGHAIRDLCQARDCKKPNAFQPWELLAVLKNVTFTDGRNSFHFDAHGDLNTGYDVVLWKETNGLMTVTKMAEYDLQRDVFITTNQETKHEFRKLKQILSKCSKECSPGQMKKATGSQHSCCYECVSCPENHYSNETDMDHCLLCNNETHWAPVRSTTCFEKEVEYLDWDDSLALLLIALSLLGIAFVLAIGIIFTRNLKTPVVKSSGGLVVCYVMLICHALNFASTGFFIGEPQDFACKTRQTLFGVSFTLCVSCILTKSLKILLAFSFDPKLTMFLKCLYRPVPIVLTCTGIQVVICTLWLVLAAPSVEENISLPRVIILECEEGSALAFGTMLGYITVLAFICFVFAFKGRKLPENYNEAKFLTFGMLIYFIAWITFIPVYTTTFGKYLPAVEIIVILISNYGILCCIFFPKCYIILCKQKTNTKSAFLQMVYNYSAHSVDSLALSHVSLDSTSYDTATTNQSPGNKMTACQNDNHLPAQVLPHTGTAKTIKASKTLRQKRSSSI
Experimental: Membranes from HEK and HEK stably transfected with GPRC6A were prepared and stored at −80° C. The membrane preparations were diluted to 0.15-0.5 mg protein/ml in binding buffer (in mM: 20 HEPES, 100 NaCl, 6 MgCl2, 1 EDTA, and 1 EGTA) immediately before all binding assays. Total binding saturation curves were generated by incubating 250 μl of membrane preparation and 250 μl of [^3H]Testoterone (Testosterone-[1,2,6,7-3H(N)]; 1 mCi; Sigma, Chemicals, St. Louis, Mo.), dissolved in binding buffer (in mM: 20 HEPES, 100 NaCl, 6 MgCl2, 1 EDTA, and 1 EGTA) for final reaction concentrations ranging from 0.3 to 25 nM, for 40 min. After the 40-min incubation, the binding reactions were terminated by rapidly filtering 400 μl of the reaction over a presoaked Whatman, glass-fiber filter (pore size, 1 μm) to separate bound steroid from free steroid. The filter was immediately washed twice with 12.5 ml of wash buffer (PBS) and placed in a scintillation vial. Radioactivity was counted in a liquid scintillation counter (Beckman Instruments, Fullerton, Calif.). All steps of the binding assays were conducted at 4° C.

[3] = biological target: T1, GPRC6A; assay: phospho-ERK activation in HEK-293 cells transfected with GPRC6A (immunoblot); format: cell-based; design: expressed in transfected cells; host or cells: HEK-293
Experimental: as §1

[4] = test system: bone marrow stromal cells (BMSC); assay: phospho-ERK in bone marrow stromal cells from wild-type and GPRC6A-/- mice; format: cell-based, mouse
Experimental: The femurs and tibias from 8-week-old wild-type and GPRC6A^−/− mice were dissected, the ends of the bones were cut, and marrow was flushed out with 2 mL of ice-cold a-MEM containing 10% FBS using a needle and syringe. A suspension of bone marrow cells was obtained by repeated aspiration of the cell preparation through a 22-gauge needle, and nucleated cells were counted with a hemocytometer. Cells were seeded into 6-well plates at a density of 3×10^7 cells/mL and cultured for three days in a-MEM supplemented with 10% FBS, 100 kU/L of sodium penicillin G and 100 mg/L of streptomycin sulfate in a humidified incubator with 5% CO2 and 95% air at a temperature of 37° C. On day 3, all nonadherent cells were then removed with the first medium change and then the adherent cells (representing bone marrow-derived mesenchymal stem cells, BMSCs) were grown for additional periods of up 3 days in the same medium. After overnight quiescence, the cells were stimulated for 5 minutes by testosterone and p-estradiol at the concentrations as indicated.

[5] = test system: seminal vesicles; assay: seminal vesicle size after orchiectomy and testosterone replacement; format: in vivo, mouse; details: testosterone slow releasing pellet
Text: First, the male WT and GPRC6A^−/− littermates will be castrated by removal of the testicles (orchiectomy) and hormone recovered by implanting testosterone slow releasing pellet.

[6] = HEK-293 cells transfected with GPRC6A

C[C@]12CC[C@H]3[C@@H](CCC4=CC(=O)CC[C@@]43C)[C@@H]1CC[C@@H]2O [testosterone]
phospho-ERK response [1]: did not responded | specific testosterone binding to plasma membranes [2, 6]: Significant amounts of specific testosterone binding | specific testosterone binding to plasma membranes ([2]; untransfected cells): negligible specific binding | medium calcium concentration required for testosterone activation of GPRC6A [3]: > 0.5 mM | activation of phospho-ERK in cytosol and nucleus ([3]; GPRC6A expressing HEK-293 cells): stimulated activation of phospho-ERK in both the cytosol and nucleus | GPRC6A-mediated activation of phospho-ERK [3, 6]: stimulated extracellular signal-regulated kinase phosphorylation (phospho-ERK) in a dose-dependent fashion | stimulation of phospho-ERK in BMSC ([4]; BMSC from GPRC6A-/- mice, testosterone up to 80 nM): only minimal effects | stimulation of phospho-ERK in BMSC ([4]; BMSC from wild-type mice): substantial stimulation of ERK | recovery of seminal vesicle size ([5]; orchidectomized GPRC6A-/- mice): weaker compared to wild-type | recovery of seminal vesicle size ([5]; orchidectomized wild-type mice): effectively recovered the size of seminal vesicles

Source: patent US20090142323A1, “METHODS FOR TREATING A DISORDER BY REGULATING GPRC6A” (priority 2007, published 2009)
